Results on four compounds are retold here after ChEMBL document CHEMBL1201862, “PubChem BioAssay data set” (2004).

Assay [1] in a line: NIH3T3 cell viability loss – ATP luminescence, mouse fibroblasts, counter-screen, dose response (AID 2010).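 Further: cells exposed to compound for about 90 hours before reading.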 It is filed as functional, cell-based. (In general: Counterscreens check selectivity or assay interference.)
The target in assay [2] is T1, Protein RecA (Mycobacterium tuberculosis, UniProt P9WHJ3).
T1 sequence (P9WHJ3 whole entry): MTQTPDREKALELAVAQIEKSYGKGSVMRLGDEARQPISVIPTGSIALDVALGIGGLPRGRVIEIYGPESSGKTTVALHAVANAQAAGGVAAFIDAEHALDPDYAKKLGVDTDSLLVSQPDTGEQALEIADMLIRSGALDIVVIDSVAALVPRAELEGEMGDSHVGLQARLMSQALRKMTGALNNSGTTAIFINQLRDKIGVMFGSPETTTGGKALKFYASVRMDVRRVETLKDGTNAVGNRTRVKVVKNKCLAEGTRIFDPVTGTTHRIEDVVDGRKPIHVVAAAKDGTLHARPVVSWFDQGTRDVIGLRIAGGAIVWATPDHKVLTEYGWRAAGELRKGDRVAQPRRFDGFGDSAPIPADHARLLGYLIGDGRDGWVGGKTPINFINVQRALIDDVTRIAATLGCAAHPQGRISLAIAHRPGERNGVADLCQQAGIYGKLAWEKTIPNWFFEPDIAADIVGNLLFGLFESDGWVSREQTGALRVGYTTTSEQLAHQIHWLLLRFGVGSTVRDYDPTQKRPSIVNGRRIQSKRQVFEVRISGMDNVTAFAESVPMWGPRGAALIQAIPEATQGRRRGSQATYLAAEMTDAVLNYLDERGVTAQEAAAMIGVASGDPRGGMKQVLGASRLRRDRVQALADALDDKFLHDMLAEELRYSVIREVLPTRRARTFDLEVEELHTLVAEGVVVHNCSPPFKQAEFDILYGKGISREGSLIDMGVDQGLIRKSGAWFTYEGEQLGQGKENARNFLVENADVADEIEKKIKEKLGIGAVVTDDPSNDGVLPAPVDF
The experiment in a line: Fluorescence Cell-Free Homogeneous Dose Retest to Identify Inhibitors of RecA-Intein Splicing Activity. [Related pubchem assays (depositor defined):AID2097, AID2223, AID489010, AID492950]. It counts as functional.

For assay [3], the target named is T2, Replicative DNA helicase DnaB (Mycobacterium tuberculosis, UniProt P9WMR3).
T2 sequence (P9WMR3 whole entry): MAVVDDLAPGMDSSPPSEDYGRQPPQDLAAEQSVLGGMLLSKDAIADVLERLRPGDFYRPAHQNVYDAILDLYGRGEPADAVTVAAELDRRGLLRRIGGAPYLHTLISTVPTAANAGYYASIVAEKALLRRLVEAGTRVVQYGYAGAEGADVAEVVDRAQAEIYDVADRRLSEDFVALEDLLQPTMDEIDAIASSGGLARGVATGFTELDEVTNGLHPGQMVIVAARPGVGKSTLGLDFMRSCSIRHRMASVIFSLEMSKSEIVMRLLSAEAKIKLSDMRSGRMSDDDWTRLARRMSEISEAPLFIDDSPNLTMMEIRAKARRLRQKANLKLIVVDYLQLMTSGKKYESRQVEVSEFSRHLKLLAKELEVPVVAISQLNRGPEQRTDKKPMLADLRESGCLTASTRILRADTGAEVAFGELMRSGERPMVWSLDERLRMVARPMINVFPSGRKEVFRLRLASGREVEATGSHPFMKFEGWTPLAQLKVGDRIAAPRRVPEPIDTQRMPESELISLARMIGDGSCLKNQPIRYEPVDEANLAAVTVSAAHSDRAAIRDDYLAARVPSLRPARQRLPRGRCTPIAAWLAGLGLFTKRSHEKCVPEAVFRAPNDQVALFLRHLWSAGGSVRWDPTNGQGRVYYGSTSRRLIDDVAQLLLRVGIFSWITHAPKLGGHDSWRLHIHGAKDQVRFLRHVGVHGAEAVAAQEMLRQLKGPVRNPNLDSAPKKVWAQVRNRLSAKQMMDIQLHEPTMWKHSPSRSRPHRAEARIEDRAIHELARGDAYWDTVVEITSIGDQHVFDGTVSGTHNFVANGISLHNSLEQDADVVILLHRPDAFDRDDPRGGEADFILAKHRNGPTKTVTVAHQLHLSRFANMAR
The experiment in a line: DnaB intein splicing inhibitors, dose response, biochemical, cell-free fluorescence (AID 449749). It counts as functional.

For assay [4], the target named is T3, DNA repair protein RAD52 homolog (Homo sapiens, UniProt P43351).
T3 sequence (P43351 whole entry): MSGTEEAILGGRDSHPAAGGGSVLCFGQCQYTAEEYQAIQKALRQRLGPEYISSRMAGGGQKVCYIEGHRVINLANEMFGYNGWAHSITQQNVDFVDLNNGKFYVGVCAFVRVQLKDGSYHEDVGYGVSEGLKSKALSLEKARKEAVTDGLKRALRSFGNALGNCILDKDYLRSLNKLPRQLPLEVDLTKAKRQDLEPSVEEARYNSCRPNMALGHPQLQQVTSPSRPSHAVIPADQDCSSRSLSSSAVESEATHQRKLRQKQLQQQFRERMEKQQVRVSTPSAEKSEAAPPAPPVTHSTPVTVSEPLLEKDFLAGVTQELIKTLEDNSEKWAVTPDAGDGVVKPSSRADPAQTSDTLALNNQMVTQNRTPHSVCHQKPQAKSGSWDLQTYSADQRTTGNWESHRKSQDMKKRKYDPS
It is filed as functional, biochemical.

For assay [5], the target named is T4, Mannose-6-phosphate isomerase (Homo sapiens, UniProt P34949).
T4 sequence (P34949 whole entry): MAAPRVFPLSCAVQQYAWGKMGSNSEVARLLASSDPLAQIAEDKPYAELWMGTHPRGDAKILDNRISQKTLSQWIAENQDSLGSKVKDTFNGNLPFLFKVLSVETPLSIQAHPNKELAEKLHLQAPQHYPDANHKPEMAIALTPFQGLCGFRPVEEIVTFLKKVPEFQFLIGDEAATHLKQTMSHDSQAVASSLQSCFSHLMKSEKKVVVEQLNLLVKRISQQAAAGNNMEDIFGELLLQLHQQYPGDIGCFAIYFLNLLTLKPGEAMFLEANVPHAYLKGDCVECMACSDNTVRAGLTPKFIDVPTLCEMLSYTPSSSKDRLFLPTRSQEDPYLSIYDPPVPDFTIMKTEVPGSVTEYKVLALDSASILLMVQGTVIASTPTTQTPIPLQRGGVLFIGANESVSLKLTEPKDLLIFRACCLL
As to the kind of experiment: MPI inhibition at elevated mannose 6-phosphate – biochemical, fluorescence intensity, high mannose 6-phosphate, primary screen (AID 1220).

Active and inactive are the calls of the source.

For orientation: EC50 means the concentration that produces a half-maximal response. In general, AC50 refers to the midpoint of the concentration-response curve, whichever way the signal moves. For the compound `CCCCCCCCCCOC(=O)Cn1c(COc2ccccc2)[n+](C)c2ccccc21`, the values for the EC50 in assay [1] and in assay [2] were > 60 µM (not active) and 9.4 µM (active), respectively. The AC50 in assay [3] was 3.6 µM (active); in assay [4] it was 12.5 µM (active).

Consider `CCOC(=O)c1c(-c2ccc(-c3ccccc3)cc2)csc1NC(=O)CNCCN(C)C`, for which the AC50 in assay [4] is 5.29 µM (active).

As a reminder, the IC50 is the point on the concentration scale where inhibition reaches its midpoint. High values mean a need for much substance, low ones inhibition by little substance. Regarding `COc1cc(-c2nnc(SCc3cc(=O)oc4cc(O)c(O)cc34)o2)cc(OC)c1OC`, the IC50 in assay [5] is > 50 µM (not active).

For `CC(C)[n+]1ccn(C2=C([N-]S(=O)(=O)c3ccccc3)C(=O)c3ccccc3C2=O)c1`, in assay [2], the EC50 is 12 µM (active). Besides, the AC50 in assay [3] was 12.3 µM (active).
